Patent US8293781B2, “Indole derivatives having cPLA2 inhibiting activity and applications and production methods of the same” (Daiichi Sankyo Company, Limited, priority 2007, dated 2012)
Counter-ions that a name gives are not always drawn.

Tests used:
[1] = system: Cys-LTs production in rat mast cell like cell line RBL-2H3; test: Calcium ionophore-induced Cys-LTs production system using RBL-2H3; format: cell-based; conditions: 1 h, RBL-2H3, A23187 5 μM, one hour
Description: For the evaluation by LTB4 and Cys-LTs production inhibiting activity, the calcium ionophore-induced LTB4 and Cys-LTs production system using the rat mast cell like cell line RBL-2H3 with reference to the method of Ishiwara et al. (see Ishiwara M. et al., J Pharmacol Exp Ther 307: 583, 2003) was used. That is, rat mast cell like cell line RBL-2H3 cells were suspended in Dulbecco's modified Eagle's medium (Nacalai Tesque) containing 10% bovine fetal serum (BioWhittaker) and 10 μg/ml gentamycin (Invitrogen). The infiltrating cell suspension 200 μl containing 1×10^5 cells per well was inoculated to 96-well culture plate and cultured over night under conditions of 5% CO2 and 37° C. The culture supernatant was removed, then the test compound solution or solvent 50 μl was added. After 30 minutes preculture, calcium ionophore (A23187) was added to a final concentration of 5 μM to induce leukotriene production.
One hour after calcium ionophore stimulus, the culture supernatant was recovered and the amounts of LTB4 and Cys-LTs in the supernatant were measured using an EIA kit (made by Amersham). Based on the measurement values, the test compound concentrations suppressing 50% of the mediator production at the time of non-addition of a compound (IC50 value) were calculated.

[2] = system: PGE2 production in mouse peritoneal exudate cells; test: LPS-induced PGE2 production system using mouse peritoneal exudate cells; format: cell-based; conditions: LPS 10 μg/ml, 6 hours
Description: For evaluation of the PGE2 production inhibiting activity, the lipopolysaccharide (LPS)-induced PGE2 production system using mouse peritoneal exudate cells with reference to the method of Kim et al. (see Kim, Y K et al., Biol Pharm Bull 25: 472, 2002) was used. That is, 2 ml of thioglycolate solution (made by Sigma, Brewer's Thioglycorate medium) per mice were intraperitoneally administered to 8-week old female C3H/HeN mice (Charles River Japan). After 4 days, a phosphate buffer saline (PBS) 5 ml was used to wash the abdominal cavity and the infiltrating cells were recovered. The recovered cells were suspended in a predetermined concentration in an RPMI1640 medium (Nacalai Tesque) containing 10% bovine fetal serum (BioWhittaker) and 10 μg/ml gentamycin (Invitrogen).
The infiltrating cell suspension 100 μl containing 2×10^5 cells per well was inoculated in a 96-well culture plate, then the test compound solution or solvent 50 μl was added. Under conditions of 5% CO2 and 37° C., this was precultured for 15 minutes, then LPS (made by Sigma: L-4524) solution 50 μl (final concentration of LPS of 10 μg/ml) was added, and the mixture was cultured for a further 6 hours. After the end of the culture, the culture supernatant was recovered and the PGE2 concentration in the supernatant was measured using an EIA kit (made by Amersham). Based on the measurement value, the test compound concentration suppressing 50% of the PGE2 production at the time of non-addition of a compound (IC50 value) was calculated.

[3] = system: TXB2 production in whole blood; test: Calcium ionophore-induced TXB2 production system using whole blood; format: cell-based; conditions: Cavia porcellus, 0.25 h; Hartley guinea pig heparin blood diluted 2-fold, A23187 5 μM, 15 minutes
Description: For evaluation of the TXB2 production inhibiting activity, the calcium ionophore-induced TXB2 production system using whole blood with reference to the method of Alanko (see Alanko J., Prostaglandins 45: 193, 1993) was used. That is, heparin blood taken from Hartley guinea pigs was diluted 2-fold by an RPMI1640 medium (Nakalai Tesque) containing 10 μg/ml gentamycin (Invitrogen). The entire blood after dilution was inoculated in a 96-well culture plate in amounts of 200 μl per well, then the test compound solution or solvent was added. After 30 minutes preculture, calcium ionophore (A23187) was added to a final concentration of 5 μM to induce TXB2 production. 15 minutes after stimulus, the supernatant was recovered by centrifugal separation and the amount of TXB2 in the supernatant was measured using an EIA kit (Amersham).
Based on the measurement value, the test compound concentration suppressing 50% of the TXB2 production at the time of non-addition of a compound (IC50 value) was calculated.

[4] = system: TPA-induced mouse dermatitis model; test: TPA-induced mouse dermatitis model (ear thickness); format: in vivo; conditions: 50 mg/kg orally 30 minutes before TPA, 6 hours after TPA, C57BL/6 mice
Description: Phorbol ester (TPA) was applied to the ear to elicite acute inflammation having ear edema as a main symptom. In the present test model, it is known that arachidonic acid metabolites, constituting various lipid mediators, are involved in inflammation. By this Experiment, it is possible to evaluate the anti-inflammatory action in vivo of anti-inflammatory drugs acting on the arachidonic acid cascade.
The Experiment was performed with reference to the method of Chang et al. (see Chang J., Eur J Pharmacol 142: 197, 1987). That is, the ear of female C57BL/6 mice (Charles River Japan) were painted with 20 μl of TPA in an acetone solution (concentration 50 μg/ml) to induce dermatitis at the ear. The ear thicknesses before application of TPA and 6 hours after application of TPA were measured using a dial gauge and the increase in ear thickness caused by inflammation was calculated. The test compound or the 0.5% hydroxypropyl cellulose solution as vehicle was administered orally to the mice 30 minutes before application of TPA. Note that the number of mice used in the test was made six per group.
Based on the measurement value, the action of each test compound in suppressing the increase in ear thickness due to application of TPA was evaluated.

Compound: O=C(O)CCc1ccc2c(c1)c(CCc1ccccc1)cn2-c1ccc(O)cc1 [Example 126, 3-[1-(4-hydroxyphenyl)-3-(2-phenylethyl)-1H-indol-5-yl]propanoic acid]
- IC50 [1]: 4170 nM
- IC50 [2]: 540 nM
- IC50 [3]: 1530 nM
- Suppression rate of increase in ear thickness [4]: 27.6%

Compound: O=C(O)CCc1ccc2c(c1)c(CCc1ccccc1)cn2-c1ccc(F)cc1 [Example 187, 3-[1-(4-fluorophenyl)-3-(2-phenylethyl)-1H-indol-5-yl]propanoic acid]
- IC50 [1]: 890 nM
- IC50 [2]: 280 nM
- IC50 [3]: 5140 nM
- Suppression rate of increase in ear thickness [4]: 25.4%

Compound: O=C(O)CCc1ccc2c(c1)c(CCc1ccccc1)cn2-c1ccc(OC(F)F)cc1 [Example 190, 3-{1-[4-(difluoromethoxy)phenyl]-3-(2-phenylethyl)-1H-indol-5-yl}propanoic acid 2-amino-2-(hydroxymethyl)propane-1,3-diol salt (1:1)]
- IC50 [1]: 1060 nM
- IC50 [2]: 850 nM
- IC50 [3]: 1370 nM
- Suppression rate of increase in ear thickness [4]: 27.6%

Compound: COCc1ccc(-n2cc(CCc3ccccc3)c3cc(CCC(=O)O)ccc32)cc1 [Example 217, 3-{1-[4-(methoxymethyl)phenyl]-3-(2-phenylethyl)-1H-indol-5-yl}propanoic acid 2-amino-2-(hydroxymethyl)propane-1,3-diol salt (1:1)]
- IC50 [1]: 1260 nM
- IC50 [2]: 1700 nM
- IC50 [3]: 2020 nM
- Suppression rate of increase in ear thickness [4]: 22.8%

Compound: O=C(O)CCc1ccc2c(c1)c(CCc1ccccc1)cn2-c1ccc(OCCO)cc1 [Example 229, 3-{1-[4-(2-hydroxyethoxy)phenyl]-3-(2-phenylethyl)-1H-indol-5-yl}propanoic acid 2-amino-2-(hydroxymethyl)propane-1,3-diol salt (1:1)]
- IC50 [1]: 400 nM
- IC50 [2]: 800 nM
- IC50 [3]: 580 nM
- Suppression rate of increase in ear thickness [4]: 23.9%

Compound: O=C(O)CCc1ccc2c(c1)c(CCc1ccccc1)cn2-c1ccc(Oc2ccccc2)cc1 [Example 231, 3-[1-(4-phenoxyphenyl)-3-(2-phenylethyl)-1H-indol-5-yl]propanoic acid 2-amino-2-(hydroxymethyl)propane-1,3-diol salt (1:1)]
- IC50 [1]: 300 nM
- IC50 [2]: 500 nM
- IC50 [3]: 540 nM
- Suppression rate of increase in ear thickness [4]: 30.4%
